This passage reports AC50 results from ChEMBL document CHEMBL5291721, “A preclinical secondary pharmacology resource illuminates target-adverse drug reaction associations of marketed drugs” (Nat Commun, 2023).

Bounds are passed on as bounds.

The target of assay [1] is Mu-type opioid receptor (Homo sapiens, UniProt P35372).
Assay [2] addresses T1, Amine oxidase [flavin-containing] A (Homo sapiens, UniProt P21397).
T1 sequence (P21397 whole entry): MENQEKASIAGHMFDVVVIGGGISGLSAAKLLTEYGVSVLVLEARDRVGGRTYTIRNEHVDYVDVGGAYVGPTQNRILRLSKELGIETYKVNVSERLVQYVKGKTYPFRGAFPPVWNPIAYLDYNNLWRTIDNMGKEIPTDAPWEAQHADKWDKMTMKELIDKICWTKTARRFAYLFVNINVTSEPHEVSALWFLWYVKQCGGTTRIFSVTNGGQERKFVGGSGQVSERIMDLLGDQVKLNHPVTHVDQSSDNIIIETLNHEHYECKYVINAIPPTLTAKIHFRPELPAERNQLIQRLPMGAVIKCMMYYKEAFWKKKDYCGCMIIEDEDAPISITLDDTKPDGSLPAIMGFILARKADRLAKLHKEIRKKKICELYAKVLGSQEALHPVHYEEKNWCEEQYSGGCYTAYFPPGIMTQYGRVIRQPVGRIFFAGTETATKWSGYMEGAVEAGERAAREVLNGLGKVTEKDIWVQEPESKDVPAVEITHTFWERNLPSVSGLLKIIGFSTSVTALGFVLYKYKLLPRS
The format is functional.

Assay [3] has as its target Prostaglandin G/H synthase 1 (Homo sapiens, UniProt P23219). The format is functional.
In assay [4] the target is 5-hydroxytryptamine receptor 2B (Homo sapiens, UniProt P41595). It counts as functional, cell-based.
Sequence of 5-hydroxytryptamine receptor 2B (P41595 whole entry): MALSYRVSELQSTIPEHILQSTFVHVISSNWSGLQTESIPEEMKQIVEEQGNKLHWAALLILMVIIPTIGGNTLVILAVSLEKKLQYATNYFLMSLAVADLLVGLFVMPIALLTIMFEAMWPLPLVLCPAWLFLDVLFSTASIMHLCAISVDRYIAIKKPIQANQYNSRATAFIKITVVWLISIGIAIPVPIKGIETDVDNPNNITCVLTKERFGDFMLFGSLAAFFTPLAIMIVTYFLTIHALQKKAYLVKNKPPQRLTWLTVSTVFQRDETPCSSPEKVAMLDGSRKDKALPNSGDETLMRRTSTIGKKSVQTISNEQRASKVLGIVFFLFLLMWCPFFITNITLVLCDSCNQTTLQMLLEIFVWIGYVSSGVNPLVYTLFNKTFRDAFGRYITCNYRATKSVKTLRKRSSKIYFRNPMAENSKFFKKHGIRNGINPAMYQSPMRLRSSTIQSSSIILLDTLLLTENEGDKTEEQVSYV
Assay [5] addresses 3',5'-cyclic-AMP phosphodiesterase 4A (Homo sapiens, UniProt P27815). The format is functional.
Assay [6] has as its target T2, Adenosine receptor A3 (Homo sapiens, UniProt P0DMS8).
T2 sequence (P0DMS8 whole entry): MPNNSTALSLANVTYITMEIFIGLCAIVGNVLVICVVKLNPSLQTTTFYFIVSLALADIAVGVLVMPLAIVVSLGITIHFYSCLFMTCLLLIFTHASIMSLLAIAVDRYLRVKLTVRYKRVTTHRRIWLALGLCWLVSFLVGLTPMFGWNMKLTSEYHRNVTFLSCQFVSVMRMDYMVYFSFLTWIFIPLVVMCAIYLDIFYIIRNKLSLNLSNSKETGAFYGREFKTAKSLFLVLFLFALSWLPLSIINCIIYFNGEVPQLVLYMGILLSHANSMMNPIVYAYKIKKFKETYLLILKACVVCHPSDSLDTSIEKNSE

The target of assay [7] is T3, Thromboxane A2 receptor (Homo sapiens, UniProt P21731).
T3 sequence (P21731 whole entry): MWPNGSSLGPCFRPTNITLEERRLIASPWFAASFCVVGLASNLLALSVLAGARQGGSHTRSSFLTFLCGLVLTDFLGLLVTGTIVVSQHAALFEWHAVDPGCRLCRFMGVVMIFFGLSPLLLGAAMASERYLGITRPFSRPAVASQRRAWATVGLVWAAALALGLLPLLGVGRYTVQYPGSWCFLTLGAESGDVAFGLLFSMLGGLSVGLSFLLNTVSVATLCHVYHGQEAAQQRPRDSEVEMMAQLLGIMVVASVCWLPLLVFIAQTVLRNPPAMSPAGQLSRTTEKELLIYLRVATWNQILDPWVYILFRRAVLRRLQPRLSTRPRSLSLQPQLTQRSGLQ
It counts as functional, cell-based.

For assay [8], the target named is T4, 5-hydroxytryptamine receptor 1A (Homo sapiens, UniProt P08908).
T4 sequence (P08908 whole entry): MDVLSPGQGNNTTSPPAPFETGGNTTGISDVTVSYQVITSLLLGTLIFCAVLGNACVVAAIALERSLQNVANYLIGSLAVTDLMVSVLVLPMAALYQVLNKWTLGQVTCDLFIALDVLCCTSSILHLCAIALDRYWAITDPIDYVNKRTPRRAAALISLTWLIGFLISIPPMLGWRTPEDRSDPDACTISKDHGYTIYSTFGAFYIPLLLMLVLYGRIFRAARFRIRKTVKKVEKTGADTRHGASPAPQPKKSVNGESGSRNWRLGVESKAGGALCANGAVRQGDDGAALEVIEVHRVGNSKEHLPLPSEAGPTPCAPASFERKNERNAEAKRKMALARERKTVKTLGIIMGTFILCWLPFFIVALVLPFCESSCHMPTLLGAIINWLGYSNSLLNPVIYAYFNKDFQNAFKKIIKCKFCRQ

Assay [9] has as its target Histamine H3 receptor (Homo sapiens, UniProt Q9Y5N1).
Assay [10] concerns the target D(1A) dopamine receptor (Homo sapiens, UniProt P21728).
Assay [11] has as its target D(3) dopamine receptor (Homo sapiens, UniProt P35462).
The target in assay [12] is T5, Estrogen receptor (Homo sapiens, UniProt P03372).
T5 sequence (P03372 whole entry): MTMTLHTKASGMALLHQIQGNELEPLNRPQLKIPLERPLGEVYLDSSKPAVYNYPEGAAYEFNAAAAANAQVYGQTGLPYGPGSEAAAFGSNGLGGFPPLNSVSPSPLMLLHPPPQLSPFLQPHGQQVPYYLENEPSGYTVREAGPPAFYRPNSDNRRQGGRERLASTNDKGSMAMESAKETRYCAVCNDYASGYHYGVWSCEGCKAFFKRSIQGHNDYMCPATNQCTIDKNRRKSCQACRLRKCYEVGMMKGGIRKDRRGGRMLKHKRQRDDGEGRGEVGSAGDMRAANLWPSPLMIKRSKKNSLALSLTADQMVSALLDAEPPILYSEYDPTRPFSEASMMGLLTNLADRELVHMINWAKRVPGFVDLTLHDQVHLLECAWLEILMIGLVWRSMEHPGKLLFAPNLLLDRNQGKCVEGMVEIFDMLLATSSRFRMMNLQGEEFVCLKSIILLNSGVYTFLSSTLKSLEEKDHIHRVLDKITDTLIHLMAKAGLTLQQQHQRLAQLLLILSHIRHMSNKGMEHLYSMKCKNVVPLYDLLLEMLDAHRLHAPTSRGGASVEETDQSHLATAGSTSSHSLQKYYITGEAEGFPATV

The target in assay [13] is Prothrombin (Homo sapiens, UniProt P00734). It counts as functional.
Note: assay procedure not described here.

Sequence of 3',5'-cyclic-AMP phosphodiesterase 4A (P27815 whole entry): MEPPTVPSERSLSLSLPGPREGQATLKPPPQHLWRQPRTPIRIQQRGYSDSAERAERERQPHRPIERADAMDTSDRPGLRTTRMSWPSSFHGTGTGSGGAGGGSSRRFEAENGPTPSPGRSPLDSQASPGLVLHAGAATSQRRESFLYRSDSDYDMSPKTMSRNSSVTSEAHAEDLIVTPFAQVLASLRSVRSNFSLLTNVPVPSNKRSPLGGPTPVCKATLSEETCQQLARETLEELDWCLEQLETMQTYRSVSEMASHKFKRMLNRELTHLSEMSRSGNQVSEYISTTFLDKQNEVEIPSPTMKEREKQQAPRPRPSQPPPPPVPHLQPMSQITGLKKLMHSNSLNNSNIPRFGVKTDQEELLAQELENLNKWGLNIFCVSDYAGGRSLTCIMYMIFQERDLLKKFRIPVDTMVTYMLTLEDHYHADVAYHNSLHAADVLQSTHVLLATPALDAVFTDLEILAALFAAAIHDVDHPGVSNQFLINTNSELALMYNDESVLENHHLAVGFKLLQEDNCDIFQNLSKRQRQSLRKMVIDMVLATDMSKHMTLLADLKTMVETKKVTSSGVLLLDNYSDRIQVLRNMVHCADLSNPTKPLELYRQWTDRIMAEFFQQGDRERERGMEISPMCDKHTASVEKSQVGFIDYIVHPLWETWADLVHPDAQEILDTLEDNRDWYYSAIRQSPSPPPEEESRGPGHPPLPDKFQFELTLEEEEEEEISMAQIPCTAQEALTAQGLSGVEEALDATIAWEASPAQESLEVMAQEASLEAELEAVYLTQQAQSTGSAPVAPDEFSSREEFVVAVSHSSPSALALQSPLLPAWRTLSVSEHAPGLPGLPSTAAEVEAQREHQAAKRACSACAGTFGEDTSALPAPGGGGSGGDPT
Sequence of Mu-type opioid receptor (P35372 whole entry): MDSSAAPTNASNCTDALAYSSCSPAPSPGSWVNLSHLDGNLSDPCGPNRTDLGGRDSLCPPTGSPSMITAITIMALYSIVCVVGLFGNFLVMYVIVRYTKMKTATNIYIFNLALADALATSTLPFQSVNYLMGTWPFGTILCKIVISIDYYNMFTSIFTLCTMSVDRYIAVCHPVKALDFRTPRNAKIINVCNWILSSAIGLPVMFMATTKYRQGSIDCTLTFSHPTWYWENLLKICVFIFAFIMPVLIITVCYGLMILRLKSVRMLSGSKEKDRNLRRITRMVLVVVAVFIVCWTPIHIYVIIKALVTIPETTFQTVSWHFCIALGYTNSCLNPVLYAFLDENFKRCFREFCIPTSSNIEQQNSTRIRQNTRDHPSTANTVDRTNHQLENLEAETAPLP
Sequence of D(1A) dopamine receptor (P21728 whole entry): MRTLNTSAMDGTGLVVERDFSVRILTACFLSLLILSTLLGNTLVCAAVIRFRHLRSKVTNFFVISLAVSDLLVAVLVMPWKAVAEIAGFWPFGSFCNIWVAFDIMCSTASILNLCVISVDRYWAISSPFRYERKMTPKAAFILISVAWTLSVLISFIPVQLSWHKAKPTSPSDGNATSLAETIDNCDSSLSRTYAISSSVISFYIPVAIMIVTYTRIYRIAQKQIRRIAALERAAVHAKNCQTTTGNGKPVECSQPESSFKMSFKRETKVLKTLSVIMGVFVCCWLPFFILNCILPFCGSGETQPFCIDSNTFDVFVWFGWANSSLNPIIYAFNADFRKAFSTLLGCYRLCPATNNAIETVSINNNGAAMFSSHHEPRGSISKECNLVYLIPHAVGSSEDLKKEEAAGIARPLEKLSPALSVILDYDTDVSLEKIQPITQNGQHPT
Sequence of Histamine H3 receptor (Q9Y5N1 whole entry): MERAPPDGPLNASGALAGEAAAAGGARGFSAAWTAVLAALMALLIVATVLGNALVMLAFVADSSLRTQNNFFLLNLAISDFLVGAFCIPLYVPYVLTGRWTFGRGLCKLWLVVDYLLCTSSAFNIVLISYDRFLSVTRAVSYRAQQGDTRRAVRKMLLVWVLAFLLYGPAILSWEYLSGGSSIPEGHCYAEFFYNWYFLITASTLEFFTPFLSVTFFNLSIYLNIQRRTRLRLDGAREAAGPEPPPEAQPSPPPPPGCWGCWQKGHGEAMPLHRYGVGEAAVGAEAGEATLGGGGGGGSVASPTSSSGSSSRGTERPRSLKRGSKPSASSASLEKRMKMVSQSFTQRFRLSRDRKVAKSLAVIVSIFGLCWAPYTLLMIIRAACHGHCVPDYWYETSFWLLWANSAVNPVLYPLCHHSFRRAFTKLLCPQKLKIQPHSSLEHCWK
Sequence of D(3) dopamine receptor (P35462 whole entry): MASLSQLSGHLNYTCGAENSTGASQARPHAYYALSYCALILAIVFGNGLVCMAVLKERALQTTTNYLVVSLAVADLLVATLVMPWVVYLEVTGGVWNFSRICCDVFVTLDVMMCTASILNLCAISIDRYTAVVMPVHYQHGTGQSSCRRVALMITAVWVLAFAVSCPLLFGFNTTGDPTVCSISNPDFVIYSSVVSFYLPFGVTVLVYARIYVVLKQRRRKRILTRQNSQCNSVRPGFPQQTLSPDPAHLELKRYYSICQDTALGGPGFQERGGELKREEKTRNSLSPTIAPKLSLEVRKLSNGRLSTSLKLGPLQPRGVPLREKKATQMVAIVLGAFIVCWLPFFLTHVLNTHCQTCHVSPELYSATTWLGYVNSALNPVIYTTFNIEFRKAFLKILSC
Sequence of Prostaglandin G/H synthase 1 (P23219 whole entry): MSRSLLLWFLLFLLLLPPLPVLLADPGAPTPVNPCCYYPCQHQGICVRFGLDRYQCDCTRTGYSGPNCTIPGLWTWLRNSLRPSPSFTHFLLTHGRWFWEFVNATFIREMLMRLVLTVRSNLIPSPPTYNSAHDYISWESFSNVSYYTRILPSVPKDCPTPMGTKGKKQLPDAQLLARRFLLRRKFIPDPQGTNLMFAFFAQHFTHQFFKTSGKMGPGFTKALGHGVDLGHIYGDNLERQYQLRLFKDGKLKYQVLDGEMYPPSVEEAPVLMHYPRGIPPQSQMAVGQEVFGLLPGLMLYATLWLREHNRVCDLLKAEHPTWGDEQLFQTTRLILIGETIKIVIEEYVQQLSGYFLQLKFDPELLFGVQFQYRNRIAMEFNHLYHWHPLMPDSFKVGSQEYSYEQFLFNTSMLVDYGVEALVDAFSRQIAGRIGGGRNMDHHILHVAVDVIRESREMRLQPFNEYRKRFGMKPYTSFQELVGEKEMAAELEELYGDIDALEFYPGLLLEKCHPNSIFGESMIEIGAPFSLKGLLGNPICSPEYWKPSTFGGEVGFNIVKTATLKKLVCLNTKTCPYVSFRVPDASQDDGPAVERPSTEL

The AC50 is the concentration at which the activity in the assay is half-maximal. For `C[C@@H]1C[C@H]2[C@@H]3C[C@H](F)C4=CC(=O)C=C[C@]4(C)[C@@]3(Cl)[C@@H](O)C[C@]2(C)[C@H]1C(=O)COC(=O)C(C)(C)C` [CLOCORTOLONE PIVALATE], the AC50 in assay [1] was greater than 10 µM; in assay [2] it was greater than 30 µM; in assay [3], greater than 30 µM; in assay [4] it was greater than 30 µM; in assay [5], greater than 30 µM; in assay [6] it was 5.52 µM. Also, the AC50 in [7], in assay [8], in [9], in assay [10], in [11] and in assay [12] was greater than 30 µM throughout. This compound also displayed an AC50 in [13] greater than 30 µM.

As for `O=P(O)(O)C(Cl)(Cl)P(=O)(O)O` [CLODRONIC ACID], the AC50 in assay [1], in assay [2], in assay [3], in assay [4], in assay [5] and in [6] was greater than 30 µM throughout. In addition, the AC50 in assay [7], in [8], in assay [9], in [10], in assay [11] and in [12] was greater than 30 µM throughout. Further, the AC50 in assay [13] is greater than 30 µM.

As to `Nc1ccncc1` [DALFAMPRIDINE], the AC50 in [1], in [2], in assay [3], in assay [4], in [5] and in [6] was greater than 30 µM in each case. In addition, the AC50 in [7], in assay [8], in [9], in assay [10], in assay [11] and in assay [12] was greater than 30 µM each time. In assay [13], this compound showed an AC50 greater than 30 µM.

`C[C@H]1O[C@@H](O[C@H]2[C@@H](O)C[C@H](O[C@H]3[C@@H](O)C[C@H](O[C@H]4CC[C@@]5(C)[C@H](CC[C@@H]6[C@@H]5CC[C@]5(C)[C@@H](C7=CC(=O)OC7)CC[C@]65O)C4)O[C@@H]3C)O[C@@H]2C)C[C@H](O)[C@@H]1O` [DIGITOXIN]: the AC50 in assay [1], in [2], in assay [3], in assay [4], in assay [5] and in assay [6] was greater than 30 µM throughout. For the same compound, the AC50 in assay [7], in assay [8], in assay [9], in assay [10], in assay [11] and in [12] was greater than 30 µM each time. The compound also displayed an AC50 in [13] greater than 30 µM.

For `OC(CCCN1CCCCC1)(c1ccccc1)c1ccccc1` [DIPHENIDOL], the AC50 in [1] was 25.2 µM; in assay [2], greater than 30 µM; in [3], greater than 30 µM; in assay [4] it was greater than 30 µM; in assay [5], greater than 30 µM; in [6], greater than 30 µM. Also, the AC50 in [7] is greater than 30 µM; in [8], 6.87 µM; in [9], greater than 30 µM; in assay [10], 12.5 µM; in assay [11] it was 2.15 µM; in assay [12], greater than 30 µM. Further, the AC50 in assay [13] is greater than 30 µM.

Turning to `O=C(CCCN1CC=C(n2c(=O)[nH]c3ccccc32)CC1)c1ccc(F)cc1` [DROPERIDOL], the AC50 in assay [1], in assay [2], in assay [3], in assay [4], in assay [5] and in [6] was greater than 30 µM in each case. Moreover, the AC50 in assay [7], in assay [8], in assay [9], in [10], in [11] and in assay [12] was greater than 30 µM throughout. The compound further showed an AC50 in assay [13] greater than 30 µM.

Consider `CCn1cc(C(=O)O)c(=O)c2cc(F)c(N3CCNCC3)nc21` [ENOXACIN], for which the AC50 in [1], in assay [2], in assay [3], in assay [4], in [5] and in [6] was greater than 30 µM throughout. Further, the AC50 in assay [7], in [8], in assay [9], in assay [10], in assay [11] and in [12] was greater than 30 µM in each case. This compound returned an AC50 in assay [13] greater than 30 µM.

For `C[C@@H](O)[C@H]1C(=O)N2C(C(=O)O)=C([C@H]3CCCO3)S[C@H]12` [FAROPENEM], the AC50 in assay [1] is greater than 30 µM; in assay [2], greater than 30 µM; in [3], 11.4 µM; in assay [4], greater than 30 µM; in [5] it was greater than 30 µM; in [6], greater than 30 µM. Also, the AC50 in [7], in assay [8], in assay [9], in assay [10], in assay [11] and in [12] was greater than 30 µM in each case. This compound also displayed an AC50 in [13] greater than 30 µM.

As for `CCOC(=O)c1ccc(OC(=O)CCCCCNC(=N)N)cc1` [GABEXATE], the AC50 in [1], in assay [2], in [3], in [4], in assay [5] and in [6] was greater than 30 µM throughout. The AC50 in assay [7], in assay [8], in assay [9], in assay [10], in [11] and in assay [12] was greater than 30 µM throughout. The AC50 in assay [13] is 0.17 µM.

For the compound `COCCOc1cnc(NS(=O)(=O)c2ccccc2)nc1` [GLYMIDINE], the AC50 in assay [1], in assay [2], in assay [3], in [4], in assay [5] and in [6] was greater than 30 µM throughout. Besides, the AC50 in assay [7], in [8], in [9], in [10], in assay [11] and in assay [12] was greater than 30 µM each time. Further, the AC50 in [13] was greater than 30 µM.
